This assay has as its target T1, Firefly luciferase (Fluc) (Photinus pyralis, UniProt P08659).
T1 construct: Fluc amplified from the Super8X TOPFlash reporter plasmid, constitutively expressed under a CMV promoter
The assay is described as follows: Fluc bioluminescence in lysates of compound-treated ΔFZD1–[…] HEK293T cells expressing CMV-driven Fluc (counter assay); Rluc and Nluc unaffected. Type of assay: cell-based.

T1 sequence (P08659 whole entry): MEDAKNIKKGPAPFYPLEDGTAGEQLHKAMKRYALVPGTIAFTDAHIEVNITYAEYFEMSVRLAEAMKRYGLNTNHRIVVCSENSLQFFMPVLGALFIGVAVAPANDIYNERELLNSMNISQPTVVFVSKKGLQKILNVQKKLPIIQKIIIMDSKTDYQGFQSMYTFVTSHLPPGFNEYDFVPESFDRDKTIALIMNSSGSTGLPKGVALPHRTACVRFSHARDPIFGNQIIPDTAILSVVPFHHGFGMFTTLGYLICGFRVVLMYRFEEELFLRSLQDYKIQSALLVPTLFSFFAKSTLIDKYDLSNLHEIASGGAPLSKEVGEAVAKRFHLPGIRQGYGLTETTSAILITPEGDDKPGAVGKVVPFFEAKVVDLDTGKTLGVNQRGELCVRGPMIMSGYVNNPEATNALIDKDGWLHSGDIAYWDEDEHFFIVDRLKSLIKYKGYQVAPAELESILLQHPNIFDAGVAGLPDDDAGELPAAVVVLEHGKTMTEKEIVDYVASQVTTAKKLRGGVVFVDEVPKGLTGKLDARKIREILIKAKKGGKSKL

One may read the IC50 as the concentration needed to halve the response being measured. Take `Cc1ccc(C(=O)Nc2ccc(SCC(=O)Nc3nc(-c4ccccc4)cs3)cc2)c(C)c1` [compound 3, 2,4-Dimethyl-N-(4-((2-oxo-2-((4-phenylthiazol-2-yl)amino)ethyl)thio)phenyl)benzamide]: the IC50 amounted to 25 nM.

The values above are taken from article PMC11684006, “A Putative Frizzled 7-Targeting Compound Acts as a Firefly Luciferase Inhibitor” (Journal of Medicinal Chemistry, 2024).
